Reference: patent publication US20220233444A1, “THIOESTER CATIONIC LIPIDS” (Translate Bio, Inc., priority 2019, published 2022)

Test system: BALB/c mice
Assay: In vivo expression of hEPO after IM injection of LNP formulations in BALB/c mice
Conditions: lipid nanoparticles with hEPO mRNA, Cationic Lipid, DMG-PEG2000, Cholesterol and DOPE; single intramuscular injection into gastrocnemius muscle, 0.1 ug; male BALB/c mice; 6 hours post-dose; ELISA; FIG. 1
Protocol: FIG. 1 depicts in vivo protein production resulting from the delivery of mRNA using lipid nanoparticles comprising Compound 30 as described herein.
Lipid nanoparticle formulations comprising human erythropoietin (hEPO) mRNA, Cationic Lipid, DMG-PEG2000, Cholesterol and DOPE were administered intramuscularly to study mRNA delivery and resultant hEPO expression. Male BALB/c mice at 6-8 weeks old are given a single injection of the LNP formulations into the gastrocnemius muscle at a dosage level of 0.1 ug. Blood samples were collected at 6 hours post-dose, hEPO protein expression levels were measured in the sera samples by ELISA and presented in FIG. 1.

## CCCCCCCCCCC(O)CN(CCCC(=O)SCCCCSC(=O)CCCN(CC(O)CCCCCCCCCC)CC(O)CCCCCCCCCC)CC(O)CCCCCCCCCC (stereo not shown) [Compound 30]
  hEPO protein expression levels in sera (in vivo protein production): high levels of in vivo protein production
